pIC50: −log10 of the molar value.
What was measured:
[1] = biological target: PTRGER4 (EP4) (Homo sapiens (Human), UniProt P35408); experiment: hEP4 b-arrestin assay (PathHunter HEK 293 PTGER4 b-arrestin cells); assay type: cell-based; conditions: antagonistic activity on hEP4; mean where measured multiple times
Procedure, shortened: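 Antagonist mode: compound is given 15 min at 37 °C, then 20 nM (final) PGE2 for 120 min, in HEK293 cells stably expressing EP4 fused to ProLink and β-arrestin 2 fused to EA. Recruitment read as β-gal luminescence after 1 h reagent at room temperature, as percent of DMSO control.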

[2] = biological target: PTGER2 (EP2) (Homo sapiens (Human), UniProt P43116); experiment: hEP2 b-arrestin assay (PathHunter HEK 293 PTGER2 b-arrestin cells); assay type: cell-based; conditions: antagonistic activity on hEP2; mean where measured multiple times
Chain of PTGER2 (EP2) (P43116 whole entry): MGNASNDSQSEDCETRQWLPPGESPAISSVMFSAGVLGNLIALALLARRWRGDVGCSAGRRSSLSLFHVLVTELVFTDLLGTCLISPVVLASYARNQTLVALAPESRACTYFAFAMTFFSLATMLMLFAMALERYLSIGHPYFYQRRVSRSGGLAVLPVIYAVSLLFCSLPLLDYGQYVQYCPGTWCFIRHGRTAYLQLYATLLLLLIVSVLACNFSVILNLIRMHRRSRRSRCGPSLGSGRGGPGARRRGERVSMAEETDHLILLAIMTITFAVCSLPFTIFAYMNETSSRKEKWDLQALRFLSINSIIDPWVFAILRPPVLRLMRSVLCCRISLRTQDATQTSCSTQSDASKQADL
Procedure, shortened: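 Readout is β-galactosidase complementation luminescence, expressed as percent of DMSO control (duplicates). PathHunter HEK293 EP2/β-arrestin 2 cells, grown 24 h, received compound for 15 min at 37 °C before a 120 min challenge with PGE2 at 5 μM final, followed by 1 h detection at room temperature.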

Chain of PTRGER4 (EP4) (P35408 whole entry, looked up, the tested form may be a part): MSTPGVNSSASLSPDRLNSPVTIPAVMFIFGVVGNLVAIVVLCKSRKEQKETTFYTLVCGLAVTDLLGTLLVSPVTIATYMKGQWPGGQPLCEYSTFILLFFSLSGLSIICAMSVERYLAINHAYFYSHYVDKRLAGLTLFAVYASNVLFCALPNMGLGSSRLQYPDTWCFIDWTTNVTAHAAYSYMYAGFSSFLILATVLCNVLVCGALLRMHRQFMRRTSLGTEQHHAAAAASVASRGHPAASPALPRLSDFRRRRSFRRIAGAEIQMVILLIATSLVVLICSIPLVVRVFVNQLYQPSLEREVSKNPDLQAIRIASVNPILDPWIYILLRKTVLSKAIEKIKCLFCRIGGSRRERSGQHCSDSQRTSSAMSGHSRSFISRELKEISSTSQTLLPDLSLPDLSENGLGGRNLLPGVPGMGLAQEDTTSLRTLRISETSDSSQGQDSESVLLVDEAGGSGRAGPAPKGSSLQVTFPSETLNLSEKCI

Row | Structure (SMILES) | pIC50 [1] | pIC50 [2]
1 | Cc1ccc(C)c2c1cc(C)n2CCNc1cc(-c2ccc(C(=O)O)c(CC(C)C)c2)ncn1 [compound 328, 2-Isobutyl-4-{6-[2-(2,4,7-trimethyl-indol-1-yl)-ethylamino]-pyrimidin-4-yl}-benzoic acid] | 6.24 | 7.21
2 | Cc1cccc2c1cc(C)n2CCNc1cc(-c2ccc(C(=O)O)c(CCC(C)C)c2)ncn1 [compound 329, 4-{6-[2-(2,4-Dimethyl-indol-1-yl)-ethylamino]-pyrimidin-4-yl}-2-(3-methyl-butyl)-benzoic acid] | 6.19 | 7.57
3 | CSc1cc(-c2cc(NCCn3c(C)cc4c(C)c(F)cc(Cl)c43)ncn2)cc(F)c1C(=O)O [compound 330] | 6.18 | 6.99
4 | CSc1cc(-c2cc(NCCn3c(C)cc4c(C)c(F)cc(Cl)c43)ncn2)cc(Cl)c1C(=O)O [compound 331] | 6.08 | 7.01
5 | Cc1cc2c(F)ccc(F)c2n1CCNc1cc(-c2ccc(C(=O)O)c(CC(C)C)c2)ncn1 [compound 332, 4-{6-[2-(4,7-Difluoro-2-methyl-indol-1-yl)-ethylamino]-pyrimidin-4-yl}-2-isobutyl-benzoic acid] | 6.23 | 8.30
6 | Cc1cc2cc(F)cc(F)c2n1CCNc1cc(-c2ccc(C(=O)O)c(CC(C)C)c2)ncn1 [compound 333, 4-{6-[2-(5,7-Difluoro-2-methyl-indol-1-yl)-ethylamino]-pyrimidin-4-yl}-2-isobutyl-benzoic acid] | 6.32 | 7.82
7 | CCCSc1cc(-c2cc(NCCn3c(C)cc4c(C)ccc(Cl)c43)ncn2)ccc1C(=O)O [compound 334, 4-{6-[2-(7-Chloro-2,4-dimethyl-indol-1-yl)-ethylamino]-pyrimidin-4-yl}-2-propylsulfanyl-benzoic acid] | 6.22 | 7.55
8 | CCCc1cc(-c2cc(NCCn3c(C)cc4cc(C)cc(Cl)c43)ncn2)cc(Cl)c1C(=O)O [compound 335] | 6.33 | 7.25
9 | Cc1ccc(F)c2c1cc(C)n2CCNc1cc(-c2ccc(C(=O)O)c(CC(C)C)c2)ncn1 [compound 336, 4-{6-[2-(7-Fluoro-2,4-dimethyl-indol-1-yl)-ethylamino]-pyrimidin-4-yl}-2-isobutyl-benzoic acid] | 6.70 | 7.34
10 | CCCc1cc(-c2cc(NCCn3c(C)cc4c(CC)ccc(F)c43)ncn2)ccc1C(=O)O [compound 338] | 6.45 | 6.07
11 | CSc1cc(-c2cc(NCCn3c(C)cc4c(F)c(F)cc(Cl)c43)ncn2)cc(Cl)c1C(=O)O [compound 339, 2-Chloro-4-{6-[2-(7-chloro-4,5-difluoro-2-methyl-indol-1-yl)-ethylamino]-pyrimidin-4-yl}-6-methylsulfanyl-benzoic acid] | 6.00 | 8.30
12 | CCCc1cc(-c2cc(NCCn3c(C)cc4c(F)ccc(Cl)c43)ncn2)cc(F)c1C(=O)O [compound 340, 4-{6-[2-(7-Chloro-4-fluoro-2-methyl-indol-1-yl)-ethylamino]-pyrimidin-4-yl}-2-fluoro-6-propyl-benzoic acid] | 6.19 | 8.30
13 | CCSc1cc(-c2cc(NCCn3c(C)cc4c(C)c(F)cc(Cl)c43)ncn2)ccc1C(=O)O [compound 341, 4-{6-[2-(7-Chloro-5-fluoro-2,4-dimethyl-indol-1-yl)-ethylamino]-pyrimidin-4-yl}-2-ethylsulfanyl-benzoic acid] | 6.40 | 7.38
14 | CCCc1cc(-c2cc(NCCn3c(C)cc4c(F)ccc(Cl)c43)ncn2)cc(Cl)c1C(=O)O [compound 342, 2-Chloro-4-{6-[2-(7-chloro-4-fluoro-2-methyl-indol-1-yl)-ethylamino]-pyrimidin-4-yl}-6-propyl-benzoic acid] | 6.21 | 8.30
15 | CCOc1cc(-c2cc(NCCn3c(C)cc4c(C)c(F)cc(Cl)c43)ncn2)ccc1C(=O)O [compound 344, 4-{6-[2-(7-Chloro-5-fluoro-2,4-dimethyl-indol-1-yl)-ethylamino]-pyrimidin-4-yl}-2-ethoxy-benzoic acid] | 6.50 | 7.47
16 | CCc1cc(-c2cc(NCCn3c(C)cc4c(OC)ccc(Cl)c43)ncn2)cc(Cl)c1C(=O)O [compound 345] | 6.79 | 7.05
17 | CCc1cc(-c2cc(NCCn3c(C)cc4c(OC)ccc(F)c43)ncn2)cc(Cl)c1C(=O)O [compound 346] | 7.30 | 7.25
18 | CCOc1cc(-c2cc(NCCn3c(C)cc4c(C)ccc(F)c43)ncn2)cc(C)c1C(=O)O [compound 347, 2-Ethoxy-4-{6-[2-(7-fluoro-2,4-dimethyl-indol-1-yl)-ethylamino]-pyrimidin-4-yl}-6-methyl-benzoic acid] | 6.62 | 7.96
19 | CCCc1cc(-c2cc(NCCn3c(C)cc4c(OC)ccc(F)c43)ncn2)ccc1C(=O)O [compound 348, 4-{6-[2-(7-Fluoro-4-methoxy-2-methyl-indol-1-yl)-ethylamino]-pyrimidin-4-yl}-2-propyl-benzoic acid] | 7.12 | 8.30
20 | Cc1cc(Cl)cc2c1cc(C)n2CCNc1cc(-c2ccc(C(=O)O)c(OC(F)F)c2)ncn1 [compound 349, 4-{6-[2-(6-Chloro-2,4-dimethyl-indol-1-yl)-ethylamino]-pyrimidin-4-yl}-2-difluoromethoxy-benzoic acid] | 6.52 | 7.59

Row | Structure (SMILES) | pIC50 [1] | pIC50 [2]
21 | CCOc1cc(-c2cc(NCCn3c(C)cc4c(F)c(F)cc(Cl)c43)ncn2)ccc1C(=O)O [compound 350, 4-{6-[2-(7-Chloro-4,5-difluoro-2-methyl-indol-1-yl)-ethylamino]-pyrimidin-4-yl}-2-ethoxy-benzoic acid] | 6.00 | 8.22
22 | CCOc1cc(-c2cc(NCCn3c(C)cc4c(Cl)c(F)cc(Cl)c43)ncn2)ccc1C(=O)O [compound 351] | 6.16 | 7.28
23 | COc1cccc2c1cc(C)n2CCNc1cc(-c2ccc3[nH]c(C)nc3c2)ncn1 [compound 352] | 6.32 | 7.31
24 | CCNc1cc(-c2cc(NCCn3c(C)cc4c(C)ccc(F)c43)ncn2)cc(Cl)c1C(=O)O [compound 353, 2-Chloro-6-ethylamino-4-{6-[2-(7-fluoro-2,4-dimethyl-indol-1-yl)-ethylamino]-pyrimidin-4-yl}-benzoic acid] | 6.67 | 7.89
25 | Cc1cc(F)cc2c1cc(C)n2CCNc1cc(-c2ccc(C(=O)O)c(C3CC3)c2)ncn1 [compound 354] | 6.11 | 7.49
26 | Cc1ccc(F)c2c1cc(C)n2CCNc1cc(-c2ccc3ncccc3c2)ncn1 [compound 355] | 6.87 | 7.32
27 | CCCNc1cc(-c2cc(NCCn3c(C)cc4c(C)ccc(F)c43)ncn2)ccc1C(=O)O [compound 356, 4-{6-[2-(7-Fluoro-2,4-dimethyl-indol-1-yl)-ethylamino]-pyrimidin-4-yl}-2-propylamino-benzoic acid] | 6.78 | 7.82
28 | Cc1ccc(F)c2c1cc(C)n2CCNc1cc(-c2ccc3ccncc3c2)ncn1 [compound 357] | 6.57 | 7.27
29 | CCOc1cc(-c2cc(NCCn3c(C)cc4c(OC)ccc(F)c43)ncn2)ccc1CNC [compound 358] | 6.14 | 6.43
30 | COc1ccc(F)c2c1cc(C)n2CCNc1cc(-c2cc(F)c(S(N)(=O)=O)c(F)c2)ncn1 [compound 359, 2,6-Difluoro-4-{6-[2-(7-fluoro-4-methoxy-2-methyl-indol-1-yl)-ethylamino]-pyrimidin-4-yl}-benzenesulfonamide] | 6.30 | 7.47
31 | CNS(=O)(=O)c1ccc(-c2cc(NCCn3c(C)cc4c(OC)ccc(F)c43)ncn2)cc1C [compound 360] | 6.43 | 7.12
32 | COc1ccc(F)c2c1cc(C)n2CCNc1cc(-c2ccc(C(=O)NCCO)cc2)ncn1 [compound 361] | 6.17 | 7.17
33 | CCNc1cc(-c2cc(NCCn3c(C)cc4c(OC)cccc43)ncn2)cc(Cl)c1C(=O)O [compound 362, 2-Chloro-6-ethylamino-4-{6-[2-(4-methoxy-2-methyl-indol-1-yl)-ethylamino]-pyrimidin-4-yl}-benzoic acid] | 6.55 | 8.52
34 | Cc1cc2ccccc2n1CCNc1cc(-c2ccc(-c3nnc(N)s3)cc2)ncn1 [compound 363] | 6.32 | 9.00
35 | CCOc1cc(-c2cc(NCCn3c(C)cc4c(OC)c(F)cc(F)c43)ncn2)ccc1C(=O)O [compound 364] | 6.27 | 7.08
36 | CCOc1cc(-c2cc(NCCn3c(C)cc4c(OC)ccc(Cl)c43)ncn2)cc(C)c1C(=O)O [compound 365, 4-{6-[2-(7-Chloro-4-methoxy-2-methyl-indol-1-yl)-ethylamino]-pyrimidin-4-yl}-2-ethoxy-6-methyl-benzoic acid] | 6.39 | 7.60
37 | CCOc1cc(-c2cc(NCCn3c(C)cc4c(OC)ccc(F)c43)ncn2)cc(C)c1C(=O)O [compound 366, 2-Ethoxy-4-{6-[2-(7-fluoro-4-methoxy-2-methyl-indol-1-yl)-ethylamino]-pyrimidin-4-yl}-6-methyl-benzoic acid] | 6.58 | 7.66
38 | Cc1cc2c(F)ccc(F)c2n1CCNc1cc(-c2ccc(C(=O)O)c(CCC(C)C)c2)ncn1 [compound 367, 4-{6-[2-(4,7-Difluoro-2-methyl-indol-1-yl)-ethylamino]-pyrimidin-4-yl}-2-(3-methyl-butyl)-benzoic acid] | 6.02 | 7.85
39 | Cc1ccc(Cl)c2c1cc(C)n2CCNc1cc(-c2ccc(C(=O)O)c(SCC(C)C)c2)ncn1 [compound 368] | 6.44 | 7.20

— patent US12011444B2, “N-substituted indole derivatives as PGE2 receptor modulators” (Idorsia Pharmaceuticals Ltd, priority 2015, dated 2024)
